In brackets after ≈: the same amount, converted by molar mass.
Experiments:
[1] = tested on: liver carcinoma HepG2; experiment: In vitro cytotoxicity MTS assay, HepG2; conditions: 0.125 μg/mL; 16 h
[2] = tested on: C. difficile 4118 (CD4118, ATCC BAA-1870, BI/NAP1/027); experiment: MIC by broth microdilution against C. difficile 4118; format: cell-based, Clostridium difficile; conditions: Table 1, strain 4118, 20-24 h, 37° C.; for MIC: Clostridioides difficile, ATCCBAA1870, read-out: MIC C. difficile 4118
[3] = tested on: embryonic kidney HEK 293T/17; experiment: In vitro cytotoxicity MTS assay, HEK 293T/17; conditions: 0.125 μg/mL; 16 h
[4] = tested on: C. difficile 630 (CD630, ATCC BAA-1382); experiment: MIC by broth microdilution against C. difficile 630; format: cell-based, Clostridium difficile; conditions: Table 1, strain 630, 20-24 h, 37° C.; for MIC: Clostridioides difficile, ATCCBAA1382
[5] = tested on: C. difficile strains 630 (CD630) and 4118 (CD4118); experiment: MIC / growth inhibition against C. difficile, covering both strains; format: cell-based, Clostridium difficile
[6] = tested on: P. aeruginosa PAO1; experiment: MIC against aerobic bacteria; format: cell-based, Pseudomonas aeruginosa; conditions: aerobic
[7] = tested on: S. aureus RN4220; experiment: MIC against aerobic bacteria; format: cell-based; conditions: aerobic; for MIC: Staphylococcus aureus, RN4220, read-out: MIC S. aureus RN4220
[8] = tested on: B. thetaiotaomicron ATCC 29148; experiment: microbe, parasite or virus in culture; format: cell-based
[9] = tested on: S. epidermidis 1457; experiment: MIC against aerobic bacteria; format: cell-based; conditions: aerobic
[10] = tested on: B. subtilis ATCC 6051; experiment: MIC against aerobic bacteria; format: cell-based, Bacillus subtilis; conditions: aerobic
[11] = tested on: panel of aerobic and anaerobic organisms; format: cell-based
[12] = tested on: C. clostridioforme ATCC 25537; experiment: MIC against anaerobic bacteria; format: cell-based, Clostridium clostridioforme; conditions: anaerobic
[13] = tested on: P. nigrescens ATCC 33563; experiment: MIC against anaerobic bacteria; format: cell-based, Prevotella nigrescens; conditions: anaerobic
[14] = tested on: P. distasonis ATCC 8503; experiment: MIC against anaerobic bacteria; format: cell-based, Parabacteroides distasonis; conditions: anaerobic
[15] = tested on: A. baumannii M2; experiment: MIC against aerobic bacteria; format: cell-based; conditions: aerobic
[16] = tested on: C. sporogenes ATCC 15579; experiment: microbe, parasite or virus in culture; format: cell-based, Clostridium sporogenes; conditions: for MIC: Clostridium sporogenes, ATCC15579, read-out: MIC C. sporogenes ATCC 15579
[17] = tested on: Clostridium difficile strain 4118; experiment: Minimum bactericidal concentration (MBC), logarithmic- and stationary-phase cells; format: cell-based; conditions: stationary-phase cells of strain 4118; 3-log reduction of inoculum
Protocol: The MBClog values of the protonophores were determined to be 0.25-2 μg/mL (˜4 to 8-fold greater than their respective MIC values).
Clostridium difficile strain 4118 was grown to OD600˜0.4-0.5 (logarithmic phase) or for 24 h (stationary phase), and thereafter added to two-fold serial dilutions of test compounds. Cultures were incubated for 20-24 h at 37° C., and then viable counts were enumerated on BHIS agar plates. […] MBC measurements were performed in duplicate.

O=C(Nc1ccc([N+](=O)[O-])cc1Cl)c1cc(Cl)ccc1O [Niclosamide, niclosamide]
cell viability HepG2 (MTS) [1]: significant decrease in viability
MIC [2]: 4 µg/mL (≈ 12.2 µM)
cell viability HEK 293T/17 (MTS) [3]: significant decrease in viability

COc1c(I)cc(I)cc1C(=O)Nc1ccc2ccccc2c1 [Compound 6b]
MIC C. difficile 630 [4]: >32 µg/mL
growth inhibitory activity against CD630 and CD4118 (in words) [5]: inactive
MIC C. difficile 4118 [2]: >32 µg/mL

CN(C(=O)c1cc(I)cc(I)c1O)c1ccc(Oc2ccccc2)cc1 [Compound 5d]
MIC C. difficile 630 [4]: >32 µg/mL
growth inhibitory activity against CD630 and CD4118 (in words) [5]: inactive
MIC C. difficile 4118 [2]: >32 µg/mL

O=C(Nc1ccc(-c2ccccc2)cc1)c1cc(I)cc(I)c1O [Compound 7a]
MIC C. difficile 630 [4]: 0.5 µg/mL (≈ 0.924 µM)
MIC C. difficile 4118 [2]: 1 µg/mL (≈ 1.85 µM)

O=C(Nc1ccc(Oc2ccc(Cl)cc2)cc1)c1cc(I)cc(I)c1 [Compound 5i]
MIC P. aeruginosa PAO1 [6]: >32 µg/mL
MIC S. aureus RN4220 [7]: >32 µg/mL
MIC C. difficile 630 [4]: >32 µg/mL
growth inhibitory activity against CD630 and CD4118 (in words) [5]: inactive
MIC B. thetaiotaomicron ATCC 29148 ([8]; anaerobic): >32 µg/mL
MIC C. difficile 4118 [2]: >32 µg/mL
MIC S. epidermidis 1457 [9]: >32 µg/mL
MIC B. subtilis ATCC 6051 [10]: >32 µg/mL
antibacterial spectrum (in words) [11]: lacked antibacterial activity
MIC C. clostridioforme ATCC 25537 [12]: >32 µg/mL
MIC P. nigrescens ATCC 33563 [13]: >32 µg/mL
MIC P. distasonis ATCC 8503 [14]: >32 µg/mL
MIC A. baumannii M2 [15]: >32 µg/mL
MIC C. sporogenes ATCC 15579 [16]: >32 µg/mL

O=C(Nc1ccc(I)cc1)c1cc(I)cc(I)c1O [Compound 7d]
MIC C. difficile 630 [4]: 0.13 µg/mL (≈ 0.22 µM)
MIC C. difficile 4118 [2]: 0.25 µg/mL (≈ 0.423 µM)

O=C(Nc1ccc(Oc2ccc(Cl)cc2)cc1)c1cc(Cl)cc(Cl)c1O [Compound 8, 3,5-Dichloro-N-(4-(4-chlorophenoxy)phenyl)-2-hydroxybenzamide]
MIC [7]: 0.13 µg/mL (≈ 0.318 µM)
MIC [4]: ≤ 0.03 µg/mL
MIC ([5]; Clostridioides difficile, one statement covering CD630 and CD4118, read-out: MIC against C. difficile): ≤ 0.13 µg/mL
enhancement of potency relative to 5g and metronidazole ([5]; MIC ratio, Table 1): 4 fold
improvement of activity over vancomycin ([5]; MIC ratio, Table 1): ~32 fold
MIC [2]: 0.06 µg/mL (≈ 0.147 µM)
MIC [16]: 4 µg/mL (≈ 9.79 µM)

O=C(Nc1ccc2ccccc2c1)c1cc(I)cc(I)c1 [Compound 6c]
MIC C. difficile 630 [4]: >32 µg/mL
growth inhibitory activity against CD630 and CD4118 (in words) [5]: inactive
MIC C. difficile 4118 [2]: >32 µg/mL

Cc1ncc([N+](=O)[O-])n1CCO [Metronidazole, metronidazole, reference compound]
MIC [7]: > 32 µg/mL
MIC [4]: 0.25 µg/mL (≈ 1.46 µM)
MIC ([8]; Bacteroides thetaiotaomicron, ATCC29148, read-out: MIC B. thetaiotaomicron ATCC 29148): 1 µg/mL (≈ 5.84 µM)
MBCstat [17]: >32 µg/mL
MIC [2]: 0.25 µg/mL (≈ 1.46 µM)
antibacterial spectrum (in words) [11]: mainly targeted anaerobic bacteria
MIC [16]: 0.25 µg/mL (≈ 1.46 µM)

O=C(Nc1ccc(Oc2ccc(Cl)cc2)cc1)c1cc(I)cc(I)c1O [Compound 5g]
MIC C. difficile 630 [4]: 0.13 µg/mL (≈ 0.22 µM)
growth inhibitory activity against CD630 and CD4118 (in words) [5]: high in vitro potency
MIC C. difficile 4118 [2]: 0.25 µg/mL (≈ 0.423 µM)
